Data reported in the SangsterLogP compilation.

Experiment: method code SF-TN, from DOI: 10.1021/jm00251a007, PMID: 4151492

In order of rising logP:
1. CC(C)NCC(O)COc1ccccc1OCC(O)CNC(C)C (stereo unspecified)  0.63
2. CC(C)NCC(O)COc1ccc(OCC(O)CNC(C)C)cc1 (stereo unspecified)  0.67
3. CC(C)NCC(O)COc1cccc(OCC(O)CNC(C)C)c1 (stereo unspecified)  0.73
4. CC(C)NCC(O)COc1ccc2c(OCC(O)CNC(C)C)cccc2c1 (stereo unspecified)  0.87
5. CC(C)NCC(O)COc1ccc(OCC(O)CNC(C)C)c2ccccc12 (stereo unspecified)  0.93
6. CC(C)NCC(O)COc1ccccc1-c1ccccc1OCC(O)CNC(C)C (stereo unspecified)  0.97
7. CC(C)NCC(O)COc1cccc2c(OCC(O)CNC(C)C)cccc12 (stereo unspecified)  0.98
8. CC(C)NCC(O)COc1cc(OCC(O)CNC(C)C)c2ccccc2c1 (stereo unspecified)  0.99
9. CC(C)NCC(O)COc1ccc2ccccc2c1OCC(O)CNC(C)C (stereo unspecified)  1.07
10. CC(C)NCC(O)COc1cccc2cccc(OCC(O)CNC(C)C)c12 (stereo unspecified)  1.37
11. CC(C)NCC(O)COc1ccccc1 (stereo unspecified)  1.76
